Experimental data published in ChEMBL document CHEMBL4837195, “Palladium-mediated synthesis and biological evaluation of C-10b substituted Dihydropyrrolo[1,2-b]isoquinolines as antileishmanial agents” (Eur J Med Chem, 2021).

Assays:
[1] = Selectivity index, ratio of CC50 for mouse J774 cells to IC50 for antileishmanial activity against Leishmania […] MHOM/IN/80/DD8 promastigotes by resazurin dye based assay; type: toxicity; settings: read-out: Selectivity Index
[2] = test system: J774; assay: Cytotoxicity against mouse J774 cells assessed as reduction in cell viability after 24 hrs by resazurin dye based assay; type: functional
[3] = test system: Leishmania amazonensis; assay: Antileishmanial activity against Leishmania […] MHOM/IN/80/DD8 promastigotes assessed as reduction in parasites for 48 hrs by resazurin dye based assay; type: functional, organism-based; settings: MHOM/IN/80/DD8, 48 h
[4] = test system: Leishmania donovani; assay: Antileishmanial activity against Leishmania donovani MHOM/Br/79/Maria promastigotes assessed as reduction in parasites for 48 hrs by resazurin dye based assay; type: functional, organism-based
[5] = Selectivity index, ratio of CC50 for mouse J774 cells to IC50 for antileishmanial activity against Leishmania donovani MHOM/Br/79/Maria promastigotes by resazurin dye based assay; type: toxicity; settings: read-out: Selectivity Index
[6] = test system: Leishmania amazonensis; assay: Antileishmanial activity against Leishmania […] MHOM/IN/80/DD8 amastigotes infected in mouse J774 cells assessed as reduction in parasites for 48 hrs by resazurin dye based assay; type: functional, organism-based; settings: MHOM/IN/80/DD8, J774, 48 h
[7] = Selectivity index, ratio of CC50 for mouse J774 cells to IC50 for antileishmanial activity against Leishmania […] MHOM/IN/80/DD8 amastigotes by resazurin dye based assay; type: toxicity; settings: read-out: Selectivity Index
[8] = test system: Leishmania donovani; assay: Antileishmanial activity against Leishmania donovani MHOM/Br/79/Maria amastigotes infected in mouse J774 cells assessed as reduction in parasites for 48 hrs by resazurin dye based assay; type: functional, organism-based; settings: J774, 48 h
[9] = Selectivity index, ratio of CC50 for mouse J774 cells to IC50 for antileishmanial activity against Leishmania donovani MHOM/Br/79/Maria amastigotes by resazurin dye based assay; type: toxicity; settings: read-out: Selectivity Index

Row | Structure (SMILES) | selectivity ratio [1] | CC50 [2] [µM] | IC50 [3] [µM] | IC50 [4] [µM] | selectivity ratio [5] | IC50 [6] [µM] | selectivity ratio [7] | IC50 [8] [µM] | selectivity ratio [9]
1 | CC1(Cc2ccc([N+](=O)[O-])cc2)c2ccccc2Cn2cccc21 (stereo not drawn) | > 2 | ≥ 314 | 157 | 159 | > 1.97 | – | – | – | –
2 | COc1cc2c(cc1OC)C(C)(Cc1cc(C(F)(F)F)cc(C(F)(F)F)c1)c1cccn1C2 (stereo not drawn) | 1.18 | 46.8 | 39.6 | 111 | 0.42 | – | – | – | –
3 | COc1cc2c(cc1OC)C(C)(CC#N)c1cccn1C2 (stereo not drawn) | > 1.14 | ≥ 354 | 309 | 226 | > 1.57 | – | – | – | –
4 | COc1cc2c(cc1OC)C(C)(C/C=C/c1ccccc1)c1cccn1C2 (stereo not drawn) | > 23 | ≥ 278 | 12.2 | 33.7 | > 8.27 | 69.3 | > 4.02 | 16.7 | > 16.6
5 | C=CCC1(C)c2cc(OC)c(OC)cc2Cn2cccc21 (stereo not drawn) | > 15.2 | ≥ 353 | 23.3 | 124 | > 2.84 | 43.5 | > 8.1 | 256 | > 1.38
6 | CC1(Cc2ccc([N+](=O)[O-])cc2)c2cc3c(cc2Cn2cccc21)OCO3 (stereo not drawn) | > 34.5 | ≥ 276 | 8 | 30.4 | > 9.09 | 77.1 | > 3.58 | 68.7 | > 4.02
7 | COc1ccc(CC2(C)c3cc(OC)c(OC)cc3Cn3cccc32)cc1 (stereo not drawn) | > 10.4 | ≥ 275 | 26.4 | 47.4 | > 5.8 | 51.6 | > 5.34 | 45 | > 6.12
8 | COc1cc2c(cc1OCc1ccccc1)Cn1cccc1C2(C)CC#N (stereo not drawn) | 7.86 | 195 | 24.8 | 34.4 | 5.68 | – | – | – | –
9 | COc1cc2c(cc1OC)C(C)(Cc1cc3ccc4cccc5ccc(c1)c3c45)c1cccn1C2 (stereo not drawn) | > 5.95 | ≥ 219 | 36.7 | 86 | > 2.54 | – | – | – | –
10 | CC1(CC#N)c2cc3c(cc2Cn2cccc21)OCO3 (stereo not drawn) | > 4.85 | ≥ 376 | 77.4 | 120 | > 3.13 | – | – | – | –
11 | COc1ccc2c(c1)Cn1cccc1C2(C)CC#N (stereo not drawn) | > 3.21 | ≥ 396 | 123 | 360 | > 1.1 | – | – | – | –
12 | COc1cc2c(cc1OC)C(Cc1ccc([N+](=O)[O-])cc1)(C(F)(F)F)c1cccn1C2 (stereo not drawn) | > 58.8 | ≥ 231 | 3.93 | 16.4 | > 14.1 | 56.7 | > 4.08 | 22.2 | > 10.4
13 | CC1(CC#N)c2ccc(OCc3ccccc3)cc2Cn2cccc21 (stereo not drawn) | 14 | 222 | 15.8 | 60.2 | 3.69 | – | – | 44.8 | 4.97
14 | COc1ccc(CC2(C)c3cc(OC)c(OC)cc3Cn3cccc32)cc1OC (stereo not drawn) | > 77 | ≥ 254 | 3.3 | 38.3 | > 6.63 | 60.8 | > 4.18 | 46.3 | > 5.49
15 | COc1cc2c(cc1OC)C(C)(Cc1ccc([N+](=O)[O-])cc1)c1cccn1C2 (stereo not drawn) | > 14.7 | ≥ 264 | 18 | 79.9 | > 3.31 | 56.1 | > 4.7 | 29.6 | > 8.92
16 | COc1ccc2c(c1OC)Cn1cccc1C2(C)CC#N (stereo not drawn) | > 2.07 | ≥ 354 | 171 | – | – | – | – | – | –
17 | COc1ccc(OC)c2c1Cn1cccc1C2(C)CC#N (stereo not drawn) | > 3.77 | ≥ 354 | 93.9 | – | – | – | – | – | –
18 | CC1(CC#N)c2ccc(F)cc2Cn2cccc21 (stereo not drawn) | > 4.31 | ≥ 416 | 96.5 | 192 | > 2.17 | – | – | – | –
19 | COc1cc2c(cc1OC)C(C)(Cc1ccccc1)c1cccn1C2 (stereo not drawn) | > 17.5 | ≥ 300 | 17.1 | 30.3 | > 10.1 | 33.6 | > 8.93 | 55 | > 5.45
20 | CCCCCCCCCCCCCCCCOP(=O)([O-])OCC[N+](C)(C)C [MILTEFOSINE] | 4.43 | 136 | 30.7 | – | 906 | 47.6 | 2.85 | 0.37 | 369
